Test results from patent publication EP2931723B1, “NEW BICYCLIC COMPOUNDS AND THEIR USE AS ANTIBACTERIAL AGENTS AND -LACTAMASE INHIBITORS” (Fedora Pharmaceuticals Inc., priority 2012, dated 2014).

Legend:
Test in all cases: MIC, antibacterial and synergistic activity
Assay type in all cases: cell-based
K.pneumo JMI 4109 [1] = details: K.pneumo JMI 4109 (SHV-1, SHV-12); substance alone
E. coli ATCC 25922 = E. coli ATCC 25922 (Wt)
K. pneumo JMI 4088 [2] = details: K. pneumo JMI 4088 (KPC-3 (Cpase)); substance alone
E. coli JMI 2692 = E. coli JMI 2692 (NDM-1, TEM-1, CTX-M-15)
Method: (§1) In the Tables 10 - 12, compounds herein disclosed were tested in combination with various antibiotics against metallo β-lactamase producing bacteria.

K. pneumo JMI 2693 = K. pneumo JMI 2693 (NDM-1 (Cpase))
Method: as §1

K. pneumo JMI 2697 = K. pneumo JMI 2697 (IMP-4 (Cpase))
Method: as §1

E. coli JMI 2665 = system: E. coli JMI 2665
Method: (§2) In the Tables 10 - 12, compounds herein disclosed were tested in combination with various antibiotics against metallo β-lactamase producing bacteria. Table 3: Synergy of the inhibitor Ex. 1 (4 µg/mL) in combination with antibiotics

K. pneumo JMI 4088 [3] = details: K. pneumo JMI 4088 (KPC-3 (Cpase))
How it was run: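 The compound was tested for synergy by combining it with antibiotics and measuring minimum inhibitory concentrations against β-lactamase producing bacteria. The inhibitor was present at a fixed concentration of 4 µg/mL together with the partner antibiotic, and MIC values were recorded.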

K. pneumo JMI 2699 = K. pneumo JMI 2699 (VIM-1, CTX-M3)
How it was run: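 Against bacteria that produce metallo β-lactamase, the inhibitor was added at a constant 4 µg/mL. Partner antibiotics were then titrated to obtain MICs.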

K. pneumo JMI 2673 [4] = details: K. pneumo JMI 2673 (CTX-M14 (ESBL))
How it was run: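 Antibacterial synergy was assessed by testing a β-lactamase inhibitor compound in combination with antibiotics. The inhibitor was held at a fixed concentration of 4 µg/mL, and the minimum inhibitory concentration of the partner antibiotic was determined in its presence.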

E. coli JMI 10768 [5] = details: E. coli JMI 10768 (CTX-M15 (Weak ESBL))
Method: as §2

K.pneumo JMI 4109 [6] = details: K.pneumo JMI 4109 (SHV-1, SHV-12)
How it was run: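 Antibacterial synergy was assessed by pairing each inhibitor compound, at a constant concentration of 4 µg/mL, with β-lactam antibiotics. The combinations were run against bacterial strains that produce β-lactamases, and the readout was the minimum inhibitory concentration of the antibiotic in the presence of the inhibitor.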

K. pneumo JMI 4106 = K. pneumo JMI 4106 (KPC-3, TEM-1, SHV-12, SHV-141)
K. pneumo JMI 2674 = K. pneumo JMI 2674 (CTX-M15 (ESBL)); substance alone
A. baumanii JMI 2659 = A. baumanii JMI 2659 (Ges-14 (Cpase))
E. coli JMI 10767 = E. coli JMI 10767 (Wt)
E. coli JMI 10768 [7] = details: E. coli JMI 10768 (CTX-M15 (Weak ESBL)); Meropenem + inhibitor at 4 µg/mL
E.coli JMI 4103 = E.coli JMI 4103 (KPC-2, Tem-1, CMY-Type)
E. coli JMI 4080 = system: E. coli JMI 4080
E. coli JMI 11103 = system: E. coli JMI 11103
K. pneumo JMI 2673 [8] = details: K. pneumo JMI 2673 (CTX-M14 (ESBL)); substance alone
P. aerug JMI 2686 = P. aerug JMI 2686 (KPC-2 (Cpase)); substance alone
[9] = Aztreonam + inhibitor at 4 µg/mL
[10] = Ceftazidime + inhibitor at 4 µg/mL
[11] = Meropenem + inhibitor at 4 µg/mL

Question: How did the MIC (K.pneumo JMI 4109 [1]) turn out when `O=C(NO[C@H]1CCNC1)[C@@H]1CC[C@@H]2CN1C(=O)N2OS(=O)(=O)O` [Ex. 1, (2S,5R)-7-Oxo-N-[(3S)-pyrrolidin-3-yloxy]-6-(sulfooxy)-1,6-diazabicyclo[3.2.1]octane-2-carboxamide] was run?
Answer: Its MIC is 4 µg/mL.

Question: What about the “MIC Aztreonam + inhibitor” value (E. coli ATCC 25922; [9]) of the same compound?
Answer: Its value is “≤.062 µg/mL”.

Question: And the “MIC Ceftazidime + inhibitor” value (E. coli ATCC 25922; [10])?
Answer: Its value is at most 0.25 µg/mL.

Question: What about the “MIC Meropenem + inhibitor” value (E. coli ATCC 25922; [11]) of the same compound?
Answer: The value was “≤.031 µg/mL”.

Question: And the MIC (E. coli ATCC 25922; Escherichia coli, ATCC25922, substance alone)?
Answer: Its MIC is 8 µg/mL.

Question: What about the MIC (K. pneumo JMI 4088 [2]) of the same compound?
Answer: Its MIC is 4 µg/mL.

Question: And the “MIC Aztreonam + inhibitor” value (E. coli JMI 2692; [9])?
Answer: Its value is 0.25 µg/mL.

Question: And the “MIC Ceftazidime + inhibitor” value (E. coli JMI 2692; [10])?
Answer: The value was at most 0.25 µg/mL.

Question: And the “MIC Meropenem + inhibitor” value (E. coli JMI 2692; [11])?
Answer: The value was “≤.031 µg/mL”.

Question: And the MIC (E. coli JMI 2692; Escherichia coli, JMI2692, substance alone, read-out: MIC)?
Answer: The MIC was 4 µg/mL.

Question: And the “MIC Aztreonam + inhibitor” value (K. pneumo JMI 2693; [9])?
Answer: The value was 0.125 µg/mL.

Question: And the “MIC Ceftazidime + inhibitor” value (K. pneumo JMI 2693; [10])?
Answer: The value was at most 0.25 µg/mL.

Question: And the “MIC Meropenem + inhibitor” value (K. pneumo JMI 2693; [11])?
Answer: Its value is 0.062 µg/mL.

Question: What about the MIC (K. pneumo JMI 2693; substance alone) of the same compound?
Answer: The MIC was over 16 µg/mL.

Question: And the “MIC Aztreonam + inhibitor” value (K. pneumo JMI 2697; [9])?
Answer: Its value is 0.25 µg/mL.

Question: And the “MIC Ceftazidime + inhibitor” value (K. pneumo JMI 2697; [10])?
Answer: The value was 16 µg/mL.

Question: And the “MIC Meropenem + inhibitor” value (K. pneumo JMI 2697; [11])?
Answer: The value was over 2 µg/mL.

Question: And the MIC (K. pneumo JMI 2697; substance alone)?
Answer: The MIC was 16 µg/mL.

Question: What about the “MIC Aztreonam + inhibitor” value (E. coli JMI 2665; E. coli JMI 2665 (CMY-2 (Plasmid Cpase)), Aztreonam + inhibitor at 4 µg/mL) of the same compound?
Answer: Its value is “≤.062 µg/mL”.

Question: What about the “MIC Ceftazidime + inhibitor” value (E. coli JMI 2665; E. coli JMI 2665 (CMY-2 (Plasmid Cpase)), Ceftazidime + inhibitor at 4 µg/mL) of the same compound?
Answer: The value was at most 0.25 µg/mL.

Question: And the “MIC Meropenem + inhibitor” value (E. coli JMI 2665; E. coli JMI 2665 (CMY-2 (Plasmid Cpase)), Meropenem + inhibitor at 4 µg/mL)?
Answer: Its value is “≤.031 µg/mL”.

Question: What about the MIC (E. coli JMI 2665; Escherichia coli, JMI2665) of the same compound?
Answer: The MIC was 4 µg/mL.

Question: And the “MIC Aztreonam + inhibitor” value (K. pneumo JMI 4088 [3]; [9])?
Answer: Its value is “≤.062 µg/mL”.

Question: And the “MIC Ceftazidime + inhibitor” value (K. pneumo JMI 4088 [3]; [10])?
Answer: Its value is at most 0.25 µg/mL.

Question: What about the “MIC Meropenem + inhibitor” value (K. pneumo JMI 4088 [3]; [11]) of the same compound?
Answer: The value was 0.062 µg/mL.

Question: What about the “MIC Aztreonam + inhibitor” value (K. pneumo JMI 2699; [9]) of the same compound?
Answer: The value was 0.5 µg/mL.

Question: And the “MIC Ceftazidime + inhibitor” value (K. pneumo JMI 2699; [10])?
Answer: Its value is 16 µg/mL.

Question: And the “MIC Meropenem + inhibitor” value (K. pneumo JMI 2699; [11])?
Answer: The value was 2 µg/mL.

Question: And the MIC (K. pneumo JMI 2699; substance alone, read-out: MIC)?
Answer: The MIC was 8 µg/mL.

Question: What about the “MIC Aztreonam + inhibitor” value (K. pneumo JMI 2673 [4]; [9]) of the same compound?
Answer: Its value is “≤.062 µg/mL”.

Question: And the “MIC Ceftazidime + inhibitor” value (K. pneumo JMI 2673 [4]; [10])?
Answer: Its value is at most 0.25 µg/mL.

Question: And the “MIC Meropenem + inhibitor” value (K. pneumo JMI 2673 [4]; [11])?
Answer: Its value is “≤.031 µg/mL”.

Question: What about the “MIC Aztreonam + inhibitor” value (E. coli JMI 10768 [5]; [9]) of the same compound?
Answer: The value was “≤.062 µg/mL”.

Question: What about the “MIC Ceftazidime + inhibitor” value (E. coli JMI 10768 [5]; [10]) of the same compound?
Answer: The value was at most 0.25 µg/mL.

Question: And the MIC (E. coli JMI 10768 [5]; Escherichia coli, JMI10768, substance alone)?
Answer: The MIC was 8 µg/mL.

Question: What about the “MIC Aztreonam + inhibitor” value (K.pneumo JMI 4109 [6]; [9]) of the same compound?
Answer: The value was “≤.062 µg/mL”.

Question: What about the “MIC Ceftazidime + inhibitor” value (K.pneumo JMI 4109 [6]; [10]) of the same compound?
Answer: Its value is at most 0.25 µg/mL.

Question: And the “MIC Meropenem + inhibitor” value (K.pneumo JMI 4109 [6]; [11])?
Answer: The value was “≤.031 µg/mL”.

Question: And the “MIC Aztreonam + inhibitor” value (K. pneumo JMI 4106; [9])?
Answer: Its value is 0.25 µg/mL.

Question: And the “MIC Ceftazidime + inhibitor” value (K. pneumo JMI 4106; [10])?
Answer: Its value is at most 0.25 µg/mL.

Question: What about the “MIC Meropenem + inhibitor” value (K. pneumo JMI 4106; [11]) of the same compound?
Answer: The value was “≤.031 µg/mL”.

Question: What about the MIC (K. pneumo JMI 4106; substance alone, read-out: MIC) of the same compound?
Answer: The MIC was 16 µg/mL.

Question: What about the MIC (K. pneumo JMI 2674) of the same compound?
Answer: Its MIC is over 16 µg/mL.

Question: What about the “MIC Aztreonam + inhibitor” value (A. baumanii JMI 2659; [9]) of the same compound?
Answer: Its value is over 4 µg/mL.

Question: And the “MIC Ceftazidime + inhibitor” value (A. baumanii JMI 2659; [10])?
Answer: The value was over 16 µg/mL.

Question: And the “MIC Meropenem + inhibitor” value (A. baumanii JMI 2659; [11])?
Answer: Its value is 2 µg/mL.

Question: What about the MIC (A. baumanii JMI 2659; Acinetobacter baumannii, JMI2659, substance alone, read-out: MIC) of the same compound?
Answer: The MIC was over 16 µg/mL.

Question: And the “MIC Meropenem + inhibitor” value (E. coli JMI 10767; [11])?
Answer: Its value is “≤.031 µg/mL”.

Question: And the MIC (E. coli JMI 10767; Escherichia coli, JMI10767, substance alone)?
Answer: Its MIC is 8 µg/mL.

Question: And the “MIC Meropenem + inhibitor” value (E. coli JMI 10768 [7])?
Answer: Its value is “≤.031 µg/mL”.

Question: What about the “MIC Aztreonam + inhibitor” value (E.coli JMI 4103; [9]) of the same compound?
Answer: The value was over 4 µg/mL.

Question: What about the “MIC Ceftazidime + inhibitor” value (E.coli JMI 4103; [10]) of the same compound?
Answer: Its value is 8 µg/mL.

Question: What about the “MIC Meropenem + inhibitor” value (E.coli JMI 4103; [11]) of the same compound?
Answer: The value was “≤.031 µg/mL”.

Question: And the MIC (E.coli JMI 4103; Escherichia coli, JMI4103, substance alone)?
Answer: Its MIC is 16 µg/mL.

Question: What about the “MIC Aztreonam + inhibitor” value (E. coli JMI 4080; E. coli JMI 4080 (Tem-10), Aztreonam + inhibitor at 4 µg/mL) of the same compound?
Answer: Its value is 1 µg/mL.

Question: And the “MIC Ceftazidime + inhibitor” value (E. coli JMI 4080; E. coli JMI 4080 (Tem-10), Ceftazidime + inhibitor at 4 µg/mL)?
Answer: Its value is 1 µg/mL.

Question: What about the “MIC Meropenem + inhibitor” value (E. coli JMI 4080; E. coli JMI 4080 (Tem-10), Meropenem + inhibitor at 4 µg/mL) of the same compound?
Answer: The value was “≤.031 µg/mL”.

Question: And the MIC (E. coli JMI 4080; Escherichia coli, JMI4080, E. coli JMI 4080 (Tem-10), substance alone)?
Answer: Its MIC is 8 µg/mL.

Question: What about the “MIC Aztreonam + inhibitor” value (E. coli JMI 11103; E. coli JMI 11103 (CTX-M15 (Intermediate ESBL)), Aztreonam + inhibitor at 4 µg/mL) of the same compound?
Answer: Its value is “≤.062 µg/mL”.

Question: And the “MIC Ceftazidime + inhibitor” value (E. coli JMI 11103; E. coli JMI 11103 (CTX-M15 (Intermediate ESBL)), Ceftazidime + inhibitor at 4 µg/mL)?
Answer: The value was at most 0.25 µg/mL.

Question: And the “MIC Meropenem + inhibitor” value (E. coli JMI 11103; E. coli JMI 11103 (CTX-M15 (Intermediate ESBL)), Meropenem + inhibitor at 4 µg/mL)?
Answer: The value was “≤.031 µg/mL”.

Question: What about the MIC (E. coli JMI 11103; Escherichia coli, JMI11103, E. coli JMI 11103 (CTX-M15 (Intermediate ESBL)), substance alone) of the same compound?
Answer: The MIC was 8 µg/mL.

Question: What about the MIC (K. pneumo JMI 2673 [8]) of the same compound?
Answer: Its MIC is over 16 µg/mL.

Question: What about the MIC (P. aerug JMI 2686) of the same compound?
Answer: The MIC was over 16 µg/mL.
